Experiments:
RXR receptors = conditions: cited from earlier work
RARγ [1] = target: T1, RARγ (Homo sapiens, UniProt P13631); assay: Transactivation, RARγ; assay type: cell-based
T1 sequence (P13631 1-454): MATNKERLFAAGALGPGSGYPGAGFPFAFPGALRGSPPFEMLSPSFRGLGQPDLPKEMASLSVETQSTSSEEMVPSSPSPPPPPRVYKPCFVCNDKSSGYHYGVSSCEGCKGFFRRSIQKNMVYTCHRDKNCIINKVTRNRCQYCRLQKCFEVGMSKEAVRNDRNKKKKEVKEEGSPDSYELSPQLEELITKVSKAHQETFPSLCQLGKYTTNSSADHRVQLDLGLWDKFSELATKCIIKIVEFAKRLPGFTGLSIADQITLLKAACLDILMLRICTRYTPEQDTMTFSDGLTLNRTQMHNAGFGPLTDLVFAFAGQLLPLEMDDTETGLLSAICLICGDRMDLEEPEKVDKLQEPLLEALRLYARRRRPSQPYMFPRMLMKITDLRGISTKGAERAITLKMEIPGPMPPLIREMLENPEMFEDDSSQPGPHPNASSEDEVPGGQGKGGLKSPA
Description: (§1) As used herein, the term "transactivation" refers to the ability of a retinoid to activate the transcription of a gene where the gene transcription is initiated by the binding of a ligand to the particular retinoic acid receptor being tested, i.e., RARα, RARβ, or RARγ. Determining the ability of a compound to transactivate a retinoic acid receptor may be performed by methods known to those of skill in the art. […] Apfel etal., Proc. Nat.

tropoelastin gene = assay: RAR transactivation of steady state tropoelastin gene in normal human lung fibroblasts (CCD-16Lu); assay type: cell-based; conditions: for Tropo-elastin Expression: CCD-16Lu, 1×10^-7 M, RT-PCR, triplicate, untreated control 30.90; for tropoelastin gene induction (in words): human lung fibroblasts, compared to the control
Procedure: Transactivation of the tropoelastin gene in normal human lung fibroblasts (CCD-16Lu) was performed as described below. Cells were grown to confluence at which time fresh media +/- ATRA or selective retiniod was added to the basal culture. ATRA and/or selective retiniods were used at a concentration of 1×10^-7 M. The cell layer was lysed using a guanidinium-based buffer (TRIZOL/Sigma) for RNA extraction and analysis. Amplification of tropoelastin and GAPDH RNA was performed by standard quantitative RT-PCR (TAQMAN, Perken/Elmer) using appropriate selective primers. Tropo-elastin gene expression was normalized to the expression of standard house-keeping gene (GAPDH).
Samples were run in triplicate.

RARα [2] = target: T2, RARα (Homo sapiens, UniProt P10276); assay: Binding, RARα (ligand binding assay)
T2 sequence (P10276 1-462): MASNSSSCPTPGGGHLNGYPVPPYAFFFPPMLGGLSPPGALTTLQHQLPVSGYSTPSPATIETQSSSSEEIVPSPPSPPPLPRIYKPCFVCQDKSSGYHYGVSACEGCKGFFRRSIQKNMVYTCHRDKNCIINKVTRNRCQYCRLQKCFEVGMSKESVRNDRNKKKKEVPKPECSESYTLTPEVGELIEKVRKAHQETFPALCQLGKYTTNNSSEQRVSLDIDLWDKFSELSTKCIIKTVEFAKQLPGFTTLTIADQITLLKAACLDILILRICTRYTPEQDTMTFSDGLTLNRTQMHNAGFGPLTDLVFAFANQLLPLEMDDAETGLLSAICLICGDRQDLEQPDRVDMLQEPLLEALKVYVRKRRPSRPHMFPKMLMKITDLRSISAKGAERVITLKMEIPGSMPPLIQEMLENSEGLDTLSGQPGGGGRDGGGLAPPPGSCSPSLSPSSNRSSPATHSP
Description: (§2) The RARγ agonist selectivity of a compound can be determined by routine ligand binding assays known to one of skill in the art such as described in C. Apfel et al., Proc. Nat.

[3] = system: elastase-induced emphysema; assay: Alveolar repair in rat model of elastase-induced emphysema, intraperitoneal; assay type: in vivo, male Sprague Dawley rats; parameters: Alveolar Area: unit not given here; conditions: for % Repair / Alveolar Area: 0.5 mg/kg ip once daily, from 21 days post injury, 14 days; for Alveolar Area: naive 1637 +/- 153, elastase + vehicle 3570 +/- 319; for alveolar repair (in words): elastase-treated rats, 0.5 mg/kg ip; for light micrographs of lung sections (in words): rat lung damaged by elastase and then treated, compared to normal rat lung
Procedure: Animals were divided into treatment groups of approximately eight. […] Three weeks post injury ATRA or a RAR selective agonist was dissolved in DMSO (20 mg/ml) and stored at -20 C. Fresh working stocks were prepared fresh daily by dilution in corn oil to a final concentration of 2 mg/ml. […] Control groups were challenged with elastase and 21 days later treated with Vehicle (DMSO/PBS) for 14 days. Animals were sacrificed 24 hours after the last dose of by exsanguination under deep anesthesia. Blood was collected at time of exanguination for analysis of changes in blood chemistry from respective treatments. The lungs were inflated with 10% neutral buffered formalin by intratracheal instillation at a constant rate (1 ml/gram body mass/min). The lung was excised and immersed in fixative for 24 hours prior to processing. Standard methods were used to prepare 5 um paraffin sections. Sections were stained with Hematoxylin and Eosin (H%E). Computerized Morphometric analysis was performed to determine the average alveolar size and alveolar number.

RARα [4] = target: T2, RARα; assay: Transactivation, RARα; assay type: cell-based
Description: as §1

RARγ [5] = target: T1, RARγ; assay: Binding, RARγ (ligand binding assay)
Description: as §2

RARβ [6] = target: T3, RARβ (Homo sapiens, UniProt P10826); assay: Transactivation, RARβ; assay type: cell-based
T3 sequence (P10826 1-455): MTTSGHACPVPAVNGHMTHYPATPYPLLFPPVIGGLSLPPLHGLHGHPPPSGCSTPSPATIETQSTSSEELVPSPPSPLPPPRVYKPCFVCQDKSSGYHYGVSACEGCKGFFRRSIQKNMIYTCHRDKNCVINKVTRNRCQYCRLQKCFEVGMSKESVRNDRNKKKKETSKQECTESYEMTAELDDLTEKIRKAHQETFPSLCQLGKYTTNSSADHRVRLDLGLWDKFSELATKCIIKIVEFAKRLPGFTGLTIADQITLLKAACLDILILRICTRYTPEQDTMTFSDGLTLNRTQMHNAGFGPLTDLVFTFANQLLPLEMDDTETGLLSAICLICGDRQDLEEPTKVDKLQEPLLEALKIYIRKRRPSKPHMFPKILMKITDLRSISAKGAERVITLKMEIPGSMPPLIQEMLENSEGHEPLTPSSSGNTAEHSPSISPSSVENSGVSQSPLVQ
Description: as §1

RARβ [7] = target: T3, RARβ; assay: Binding, RARβ (ligand binding assay)
Description: as §2

[8] = Plasma triglyceride levels in rats; assay type: in vivo
Procedure: Experimental emphysema was induced in rats as described in Example 2. Three (3) weeks post injury animals were treated with vehicle (Capmul solution) or retinoids prepared in Capmul and dosed orally at 1, 3, and 10 mg/kg body weight. Animals were treated for 14 days prior to termination of study. Lung harvest and blood collection was performed as described in Example 2.
Quantitation of triglycerides contained in rat plasma was performed after using established procedures in a contact clinical laboratory facility. Briefly, plasma triglycerides were converted to dihdroxyacetone and H2 O2, by sequential treatment of plasma with lipase and glycerokinase according directions described by manufacturer of triglycerides/GPO kit (Boehringer Mannheim #1488872). H2 02 was quantitated calorimetrically in a Hitachi 911 Chemistry Analyzer. In rats normal triglyceride levels are 75-175 mg/dl.
Dosage was at 1 mg/kg/PO daily for two weeks. […] Therefore, it appears that RARα selective activity is linked to elevated triglyceride levels.

experimental emphysema = assay: Alveolar repair in rat experimental emphysema, oral dosing; assay type: in vivo, rats; conditions: 1 mg/kg/PO daily for two weeks
Procedure: Three (3) weeks post injury animals were treated with vehicle (Capmul solution) or retinoids prepared in Capmul and dosed orally at 1, 3, and 10 mg/kg body weight. Animals were treated for 14 days prior to termination of study.
Dosage was at 1 mg/kg/PO daily for two weeks.

alveolar septation = conditions: postnatal administration; newborn rats; cited from earlier work
[9] = plasma, 1 mg/kg/PO daily for two weeks
[10] = plasma, 1 mg/kg/PO daily for two weeks, normal rat 75-175 mg/dl

| EC50 (RARγ [1]; Table III) [µM] | IC50 (RARγ [5]; Table III) [µM] | SMILES | % Repair [3] [%] | Alveolar Area [3] | alveolar repair (in words) [3] | triglyceride levels (in words) [8, 9] | [Triglyceride] [8, 10] [mg/dL] | % Repair (experimental emphysema) [%] | also measured |
| --- | --- | --- | --- | --- | --- | --- | --- | --- | --- |
| – | – | CC1=C(/C=C/C(C)=C\C=C\C(C)=C\C(=O)O)C(C)(C)CCC1 [9-cis retinoic acid] | – | – | – | – | – | – | binding to RXR receptors (in words) (RXR receptors): is the natural ligand |
| 10 | 10 | O=C(O)c1ccc(NC(=O)c2cc(C(F)(F)F)cc(C(F)(F)F)c2)cc1 [RAR Agonist 1, reference compound] | < 20 | 3058 +/- 160 | do not induce alveolar repair | – | – | – | EC50 (RARγ [1]; Table II): 10 µM; Tropo-elastin Expression (tropoelastin gene): 13.93 (Elastin/GAPDH) × 10^5; tropoelastin gene induction (in words) (tropoelastin gene): did not induce the tropoelastin gene; IC50 (RARα [2]; Table II): 0.3 µM; light micrographs of lung sections (in words) [3]: did not reverse the change caused by elastase treatment; EC50 (RARα [4]; Table II): 0.0165 µM; IC50 (RARγ [5]; Table II): 10 µM; EC50 (RARβ [6]; Table II): 10 µM; IC50 (RARβ [7]; Table II): 10 µM |
| 0.16 | 0.3 | CC(C)COc1ccc(-c2ccc3cc(C(=O)O)ccc3c2)cc1C(C)(C)C [RAR Agonist 2, reference compound] | < 20 | 3653 +/- 550 | do not induce alveolar repair | – | – | – | EC50 (RARγ [1]; Table II): 0.16 µM; Tropo-elastin Expression (tropoelastin gene): 1.85 (Elastin/GAPDH) × 10^5; tropoelastin gene induction (in words) (tropoelastin gene): did not induce the tropoelastin gene; IC50 (RARα [2]; Table II): 1 µM; light micrographs of lung sections (in words) [3]: did not reverse the change caused by elastase treatment; EC50 (RARα [4]; Table II): 2 µM; IC50 (RARγ [5]; Table II): 0.3 µM; EC50 (RARβ [6]; Table II): 0.039 µM; IC50 (RARβ [7]; Table II): 0.028 µM |
| 0.104 | 0.77 | CCCCCC(=O)c1cc2c(cc1/C=C/c1ccc(C(=O)O)cc1)C(C)(C)CCC2(C)C [RAR Agonist 5] | 56 | 2502 +/- 243 | markedly induce alveolar repair | do not cause elevation in the triglyceride levels | 119 | 40 | IC50 (RARα [2]; Table III): 2.3 µM; EC50 (RARα [4]; Table III): 10 µM; EC50 (RARβ [6]; Table III): 10 µM; IC50 (RARβ [7]; Table III): 5.4 µM |
| 0.015 | 2.41 | CC1(C)CCOc2ccc(C(=O)/C=C/c3ccc(C(=O)O)cc3)cc21 [RAR Agonist 6] | > 70 | 1909 +/- 207 | markedly induce alveolar repair | do not cause elevation in the triglyceride levels | 140 | 39 | IC50 (RARα [2]; Table III): 3.1 µM; EC50 (RARα [4]; Table III): 10 µM; EC50 (RARβ [6]; Table III): 0.016 µM; IC50 (RARβ [7]; Table III): 2.1 µM |
| – | – | O=C(O)c1ccc2cc(-c3ccc(O)c(C45CC6CC(CC(C6)C4)C5)c3)ccc2c1 [RAR Agonist 7] | > 70 | 1817 +/- 241 | markedly induce alveolar repair | – | – | 66 | [Triglyceride] ([8]; rat, in vivo, po, 1 mg/kg): 114 mg/dL; triglyceride levels (in words) ([8]; rat, in vivo, po, 1 mg/kg): do not cause elevation in the triglyceride levels; EC50 (RARβ [6]; Table III): 2.3 µM; IC50 (RARβ [7]; Table III): 4.6 µM |
| – | – | CC1=C(/C=C/C(C)=C/C=C/C(C)=C\C(=O)O)C(C)(C)CCC1 [RAR Agonist 8, reference compound] | – | – | – | either on the high end of normal or elevated | 178 | 57.1 | – |
| – | – | CC1(C)CCC(C)(C)c2cc(C(=O)Nc3ccc(C(=O)O)cc3)ccc21 [RAR Agonist 9] | < 20 | 3323 +/- 406 | do not induce alveolar repair | – | – | – | – |
| – | – | CC1=C(/C=C/C(C)=C\C=C\C(C)=C\C(=O)O)C(C)(C)CCC1 [RAR Agonist 10, reference compound] | – | – | – | either on the high end of normal or elevated | 273 | 58.3 | – |
| – | – | C[C@@H]1C[C@H]2[C@@H]3CCC4=CC(=O)C=C[C@]4(C)[C@@]3(F)[C@@H](O)C[C@]2(C)[C@@]1(O)C(=O)CO [dexamethasone] | – | – | – | – | – | – | number of alveoli / septation in lungs (in words) (alveolar septation): inhibits the process of septation in the lungs |
| – | – | CC1=C(/C=C/C(C)=C/C=C/C(C)=C/C(=O)O)C(C)(C)CCC1 [retinoic acid] | – | – | – | – | – | – | number of alveoli / septation in lungs (in words) (alveolar septation): increases the number of alveoli in rats |

Source: patent US6300350A, “Treatment of emphysema using RARy selective retinoid agonists” (priority 2000, dated 2001)
